Measured values reported in a melting point compilation (Tetko et al.; mined from patent text by program, amines drawn as free bases though some values may be those of a salt).

melting point [°C] | SMILES
59 to 61 | Cc1nc(Cc2ccc(O)cc2)c2c(c1OCCCCNC(C)C)COC2
93 to 95 | COCc1nc(C(=O)OC)c(C(=O)OC)[nH]1
126 to 128 | COC(=O)C(C)Oc1ccc(Nc2cc(NC(C)=O)c(F)cc2[N+](=O)[O-])cc1 (stereo unspecified)
75 to 76 | CCOC(=O)c1ccc(CCN2CCN(Cc3ccc(OC)cc3)CC2)cc1
232 to 234 | COc1cc(C)c2ccc(N3C(=O)C4=C(SCCS4)C3OC(=O)N3CCN(C)CC3)nc2n1 (stereo unspecified)
48 to 50 | C=CCc1cc(CC(=O)NCCCC)ccc1O
> 330 | Nc1nc(-c2ccncc2)nc2[nH]c(S)nc12
121 to 124 | COC(=O)C1CCc2cc(OCc3ccccc3)c(OCc3ccccc3)cc2C1O (stereo unspecified)
169 to 172 | C=C(C(=O)O)c1ccc(-c2ccccc2)c(F)c1
128 to 130 | CC(C)(C)[Si](C)(C)OC(=O)O[Si](C)(C)C(C)(C)C
178 to 180 | CCCc1nc2c(N)nc3cc(OCC(=O)c4ccccc4)ccc3c2n1CC(C)C
215 | CCOC(=O)c1cccc(NC(=O)CN2C(=O)c3ccccc3C2=O)c1
114 to 117 | CN1CCC[C@H]1Cn1nc(-c2c(-c3ccccc3)nn3ccccc23)ccc1=O
65 to 67 | CCOC(=O)CCC(C)Oc1ccc2c(c1)C(N(CC)S(C)(=O)=O)CC(C)(C)O2 (stereo unspecified)
158 to 159 | CC(C)(C)c1nc2cc(N3CCOCC3)c(N)cc2s1
158 to 159 | CN1CC(CCCl)N(C)c2nc3ccccc3n2C1=O (stereo unspecified)
144 to 146 | O=Cc1ccc(-c2cccc3cncn23)cc1
81 to 84 | CN(C(CCN1C(=O)c2ccccc2C1=O)C(=O)NO)S(=O)(=O)c1ccc(Oc2cccc(Cl)c2)cc1 (stereo unspecified)
174 to 175 | C=C1C(OC(C)=O)C(CO)OC1n1ccc(NC(C)=O)nc1=O (stereo unspecified)

melting point [°C] | SMILES
215 to 217 | NS(=O)(=O)c1ccc(C2CCN(c3cc([N+](=O)[O-])ccn3)CC2)cc1
115 to 116 | FC(F)(F)c1ccc(C2=CCC(N3CCN(Cc4ccccc4)CC3)CC2)cc1 (stereo unspecified)
129 to 130 | O=c1[nH]c(=O)n(C2CC(O)C(COCc3ccccc3)O2)cc1F (stereo unspecified)
37 to 38 | COC=C(C(=O)OC)c1ccccc1
149 to 152 | O=C(NCCO)c1cnc(-c2ccccc2)s1
56 to 58 | O=C1C=CC(OCc2ccccc2)N1S(=O)(=O)c1ccccc1 (stereo unspecified)
163 to 165 | O=C(c1ccc(O)cc1)c1c(-c2ccccc2)sc2ccccc12
118 | O=S(=O)(N=CN(CCO)CCO)c1cc(Br)cc(Br)c1
> 300 | Cc1cc2c(-c3cccnc3Cl)nc(O)nc2s1
162 to 164 | COCOc1nn(-c2ccccc2)cc1/C=C/c1nc(N2CCOCC2)sc1C
115 | O=S(=O)(c1ccc(Cl)c(CBr)c1Cl)N1CCCC1
39 to 40 | Cc1cc(C)c2c(c1C)OC(C)(CBr)C2 (stereo unspecified)
256 to 258 | O=C(c1c[nH]c2cc(Cl)ccc12)C(F)(F)F
75 to 77 | C1CC1Nc1nc(NC2CC2)nc(NC2CC2)n1
58 to 60 | CCOC(=O)C(C)(C)Oc1ccc(CNc2ccc(Cl)cc2)cc1
309 to 310 | O=C(O)c1ccc(COc2ccc3cc(-c4ccc(-c5ccccc5)n4-c4ccccc4)ccc3c2)cc1
151 to 154 | COc1cc(I)c(C(=O)Cl)cc1OC
234 to 235 | CN(C(=O)c1ccccc1)c1cccc(-c2nc(=O)c3ccccc3s2)n1
109 to 111 | O=C(Nc1ccc2c(c1)CSCC2)OCc1ccccc1

SMILES | melting point [°C]
CC(C)N1CC(CO)CC2c3cccc4[nH]cc(c34)CC21 (stereo unspecified) | 192 to 194
CC(=O)OC1(c2ccc(Cl)cc2)CCN(CCCC(=O)c2ccc(F)cc2)CC1 | 106 to 110
N#Cc1ccccc1NCc1nc2ccc(F)cc2c(=O)n1-c1cccnc1Cl | 183 to 187
